# Publication PMC10384010, “Chromatographic Data in Statistical Analysis of BBB Permeability Indices” (Membranes, 2023)
# Key:
# [1] = Normal-phase TLC on silica gel 60 F254 (Rf); format: physicochemical; settings: water:methanol:acetonitrile 60:20:20, ammonium acetate pH 7.4
# Method: (§1) The purity of the isolated substances was checked by TLC chromatography and densitometric scanning.
# (§2) APIs were subjected to chromatographic in column (HPLC) and thin layer (TLC) formats. TLC chromatography was carried out on 20 cm × 20 cm glass plates by Merck, covered with silica gel and the addition of a fluorescent indicator. Merck TLC silica gel 60 F254 was used for the normal phase (NP). In the reverse phase (RP), RP-2 silanized plates were used (Merck TLC Silica gel 60 RP-2 F254, silanized). The mobile phase was buffered with ammonium acetate to pH 7.4 (LACH-NER, ammonium acetate).
# (§3) Plates, after developing the chromatograms, were scanned using a densitometer (Desaga CD 60) with an analytical wavelength selected individually for drugs. The values of Rf (molecular descriptors: NP, RP) were determined.
# [2] = plasma protein binding, given as fraction; ref Drugbank; cited from earlier work
# [3] = HPLC on IAM (immobilized artificial membrane) column, retention factor; format: physicochemical; settings: IAM.PC.DD.2 column; for k(IAM) retention factor: 10 mM phosphate buffer pH 7.4:acetonitrile 80:20; for logkIAM: logarithm of retention factor, phosphate buffer pH 7.4:acetonitrile 80:20
# Method: Chromatographic data also came from an experiment with a HPLC IAM (immobilized artificial membrane) column (Regis Technologies Inc.: IAM.PC.DD.2, 10 µm; 4.6 mm × 10 mm). The column contains a standard membrane consisting of a phospholipid bilayer. Organic solvents (acetonitrile and methanol) and water (J.T. Baker HPLC) were used in HPLC. Sigma phosphate buffered saline tablets were used to prepare the phosphate buffer. The mobile phase was a mixture of 10 mM phosphate buffer at pH 7.4 and acetonitrile in the ratio of 80:20 (v/v) [35]. The mobile phase flow was set at 0.5 mL/min; detection was carried out with a UV–Vis detector. The obtained values of the retention factor (k IAM) were transformed into a logarithmic form and entered into the statistical analysis (descriptor: log k IAM).
# [4] = entering the CNS / not entering the CNS; ref Drugbank [36]; cited from earlier work
# [5] = Reversed-phase TLC on RP-2 silanized plates (Rf); format: physicochemical; settings: silica gel 60 RP-2 F254 silanized; water:methanol:acetonitrile 60:20:20, ammonium acetate pH 7.4
# Method: as §1, §2, §3
Compound,NP (Rf from NP TLC plate) [1],PB (protein binding) [2],k(IAM) retention factor [3],logkIAM [3],CNS+/- [4],RP (Rf from RP-2 TLC plate) [5]
CC(=O)Oc1ccccc1C(=O)O [acetylsalicylic acid],0.89,0.995,0.03,-1.52,1,0.98
COc1ccc(CCN2CCC(Nc3nc4ccccc4n3Cc3ccc(F)cc3)CC2)cc1 [astemizol],0.62,0.967,26.27,1.42,1,0.65
CC[C@H]1OC(=O)[C@H](C)[C@@H](O[C@H]2C[C@@](C)(OC)[C@@H](O)[C@H](C)O2)[C@H](C)[C@@H](O[C@@H]2O[C@H](C)C[C@H](N(C)C)[C@H]2O)[C@](C)(O)C[C@@H](C)CN(C)[C@H](C)[C@@H](O)[C@]1(C)O [azithromycin],0.63,0.29,0.06,-1.20,0,0.24
CC(C)NCC(O)COc1ccc(COCCOC(C)C)cc1 (stereo not shown) [bisoprolol],0.67,0.3,6.74,0.83,0,0.57
O=C1CN=C(c2ccccn2)c2cc(Br)ccc2N1 [bromazepam],0.87,0.7,2.21,0.34,1,0.83
CCCCN1CCCCC1C(=O)Nc1c(C)cccc1C (stereo not shown) [bupivacaine],0.67,0.95,–,–,1,0.74
COc1ccccc1OCCNCC(O)COc1cccc2[nH]c3ccccc3c12 (stereo not shown) [carvedilol],0.73,0.98,–,–,0,–
CO/N=C(\C(=O)N[C@@H]1C(=O)N2C(C(=O)O)=C(COC(N)=O)CS[C@H]12)c1ccco1 [cefuroxime],0.97,0.5,1.69,0.23,0,0.88
Cc1ccc(-c2cc(C(F)(F)F)nn2-c2ccc(S(N)(=O)=O)cc2)cc1 [celecoxib],0.98,0.97,50.01,1.70,1,0.75
NS(=O)(=O)c1cc(C2(O)NC(=O)c3ccccc32)ccc1Cl (stereo not shown) [chlortalidone],0.96,0.75,1.32,0.12,1,–
CN/C(=N/CCSCc1nc[nH]c1C)NC#N [cimetidine],0.64,0.17,0.26,-0.58,0,0.88
COc1cc(N)c(Cl)cc1C(=O)NC1CCN(CCCOc2ccc(F)cc2)CC1OC (stereo not shown) [cisapride],0.64,0.975,57.99,1.76,1,0.65
CN1C(=O)CC(=O)N(c2ccccc2)c2cc(Cl)ccc21 [clobazam],0.95,0.85,2.58,0.41,1,0.79
Clc1cccc(Cl)c1N=C1NCCN1 [clonidine],0.49,0.3,2.83,0.45,1,0.73
CN1CCC(=C2c3ccccc3C=Cc3ccccc32)CC1 [cyproheptadine],0.45,0.975,23.79,1.38,1,0.45
OCCOCCN1CCN(C(c2ccccc2)c2ccc(Cl)cc2)CC1 (stereo not shown) [hydroxyzine],0.55,0.93,13.82,1.14,1,–
COc1ccc2c(c1)c(CC(=O)O)c(C)n2C(=O)c1ccc(Cl)cc1 [indomethacin],–,0.97,1.08,0.03,1,–
CCC(C)n1ncn(-c2ccc(N3CCN(c4ccc(OCC5COC(Cn6cncn6)(c6ccc(Cl)cc6Cl)O5)cc4)CC3)cc2)c1=O (stereo not shown) [itraconazole],0.96,0.998,–,–,0,0.86
O=C(c1ccccc1)c1ccc2n1CCC2C(=O)O (stereo not shown) [ketorolac],0.92,0.99,–,–,1,0.96
CC[C@@H](C(N)=O)N1CCCC1=O [levetiracetam],0.92,0.1,–,–,1,0.92
CCC[C@@H]1C[C@@H](C(=O)N[C@@H]([C@H]2O[C@H](SC)[C@H](O)[C@@H](O)[C@H]2O)[C@@H](C)O)N(C)C1 [lincomycin],0.91,0.7,–,–,0,–
O=C1Nc2ccc(Cl)cc2C(c2ccccc2Cl)=NC1O (stereo not shown) [lorazepam],–,0.87,9.04,0.96,1,–
Nc1ccc(O)c(C(=O)O)c1 [mesalazine],–,0.43,–,–,0,0.99
CCOC(=O)C1=C(C)NC(C)=C(C(=O)OC)C1c1cccc([N+](=O)[O-])c1 (stereo not shown) [nitrendipine],0.97,0.99,–,–,0,0.86
NC(=O)N1c2ccccc2CC(=O)c2ccccc21 [oxcarbamazepine],0.91,0.4,–,–,1,0.91
CC(C)NCC(O)c1ccc(NS(C)(=O)=O)cc1 (stereo not shown) [sotalol],0.48,–,1.35,0.13,1,0.85
CCCc1nc2c(C)cc(-c3nc4ccccc4n3C)cc2n1Cc1ccc(-c2ccccc2C(=O)O)cc1 [telmisartan],0.9,–,4.68,0.67,1,0.87
CC(C)(C)NC[C@H](O)COc1nsnc1N1CCOCC1 [timolol],0.34,0.1,–,–,0,0.97
OCCN1CCN(CC/C=C2/c3ccccc3Sc3ccc(Cl)cc32)CC1 [zuclopenthixol],0.47,0.985,48.73,1.69,1,–
